Assay results published in ChEMBL document CHEMBL1157539, “Thousands of chemical starting points for antimalarial lead identification” (Nature, 2010).

Tested on: Plasmodium falciparum
Assay: GSK_TCMDC: Inhibition of Plasmodium falciparum 3D7 in whole erythrocytes, using parasite LDH activity as an index of growth.
Assay type: functional, organism-based
Settings: Plasmodium falciparum, 3D7

| Compound | XC50 |
| --- | --- |
| OC(CNCc1ccccc1OC(F)F)c1cccc(C(F)(F)F)c1 (configuration not stated) | 765 nM |
| OC(CNCc1ccccc1OCc1ccccc1)c1cccc(I)c1 (configuration not stated) | 418 nM |
| Cc1cccc2nc(-c3ccc(-c4cccc(CN5CCN(CC6CCCN(C)C6)CC5)c4)s3)[nH]c12 (configuration not stated) | 121 nM |
| Cc1cc(NC(=O)c2ccco2)ccc1OC1CCN(Cc2ccc(C#N)cc2)CC1 | 497 nM |
| CSc1nccc(-c2ccc3ccnc(N)c3c2)n1 | 925 nM |
| CC(CNC1CCN(CCn2c(=O)ccc3ccc(F)cc32)CC1)c1ccccc1 (configuration not stated) | 1270 nM |
| CC(C)CCNCc1ccc(OCc2cccc(C(=O)Nc3ccccc3)c2)c(I)c1 | 288 nM |
| CN1CCC(Oc2ccc(CN3CC[C@H](NC(=O)c4cc(F)cc(F)c4)C3)c3ccccc23)C1 (some centres not stated) | 841 nM |
| Cc1[nH]c2ccccc2c1C1=CCN(CC2CC2C(=O)c2ccccc2)CC1 (configuration not stated) | 349 nM |
| O=C(Nc1ccc(OC2CCN(Cc3ccc(F)cc3)CC2)c(Cl)c1)c1ccsc1 | 717 nM |
| Cc1ccc(C2(O)CC3CCC(C2)N3C)cc1 (configuration not stated) | 611 nM |
| CC1(C)CN(CCC2CCC(NC(=O)/C=C/c3ccc(F)cc3F)CC2)Cc2ccc(C#N)cc21 (configuration not stated) | 787 nM |
| Cc1cc(N2CCOCC2)nc2ccc(NC(=O)c3ccc(Cl)c([N+](=O)[O-])c3)cc12 | 1030 nM |
| COc1ccc(OC)c(CC2c3ccc(Br)c(O)c3CCN2C)c1 (configuration not stated) | 754 nM |
| N#Cc1ccc(-c2ccc(C(=O)NCCCCN3CCC(c4cn(CCO)c5ccccc45)CC3)cc2)cc1 | 954 nM |
| CCC(CO)NCC(O)Cn1c2ccc(Br)cc2c2cc(Br)ccc21 (configuration not stated) | 783 nM |
| O=C1CCCN1CCCNCc1ccc(-c2cccc(-c3nc4cc(C(F)(F)F)ccc4[nH]3)c2)cc1 | 191 nM |
| CCCCN(CCCC)/C(=N/c1cccc(Cl)c1Cl)Nc1ccc(C#N)cc1O | 853 nM |
| COc1ccc(CNC2CCN(C)CC2)cc1-c1ccc(S(=O)(=O)NCCc2ccccn2)c(C)c1 | 1150 nM |
| Cc1cc(=NN=Cc2ccc(Cl)cc2)c2ccccc2[nH]1 | 787 nM |
| O=C(NC1CCN(Cc2ccccc2)CC1)c1cc(-c2ccncc2)nc2ccc(Cl)cc12 | 920 nM |
| CCC(C)c1ccc(-n2c(Nc3ccccc3)nc3cc(S(N)(=O)=O)ccc32)cc1 (configuration not stated) | 1060 nM |
| N#Cc1cccc(C(=O)NC2CCN(c3ccnc(Nc4ccc(F)cc4)n3)C2)c1 (configuration not stated) | 396 nM |
| O=c1ccc2ccc(F)c3c2n1CC3CN1CCC(NCc2cccc(-c3cccs3)c2)CC1 (configuration not stated) | 834 nM |
| CN1CCC(NCc2ccc(-c3ccc(S(=O)(=O)NC4CCC4)s3)cc2)CC1 | 846 nM |

| Compound | XC50 |
| --- | --- |
| CCCC1N=C(N)N=C(N)N1c1cccc(C(F)(F)F)c1 (configuration not stated) | 594 nM |
| O=C(Nc1ccc(N2CCC(Nc3ccccn3)CC2)cc1)c1cnc(Cl)c(Cl)c1 | 1190 nM |
| CC(=O)c1cc(N2CCCC2)ccc1N | 15.5 nM |
| Cc1ccc(C(=O)Nc2ccc(-c3nc4ccccc4[nH]3)cc2)cc1S(=O)(=O)N1CCOCC1 | 1210 nM |
| CCc1sc(CN(CCCNc2cc(=O)c3ccccc3[nH]2)Cc2sc(CC)c(Br)c2-c2ccsc2)c(-c2ccsc2)c1Br | 94.6 nM |
| O=c1cc(NCCCN(Cc2cc3c(Cl)cc(Cl)cc3[nH]2)Cc2cc3c(Cl)cc(Cl)cc3[nH]2)[nH]c2ccccc12 | 121 nM |
| CC(C)CCn1c(Sc2ccc(C#N)c([N+](=O)[O-])c2)nnc1-c1ccccc1Cl | 1030 nM |
| Fc1cccc(COc2ccc(Nc3ncnc4ccc(-c5nnc(C(F)(F)F)o5)cc34)cc2Cl)c1 | 579 nM |
| COc1cc(C=CC(=O)N2CCN(Cc3cccc(C)c3)CC2)ccc1OCc1c(C)noc1C | 1030 nM |
| CCOc1ccc2c(=NN=Cc3cccc(OC)c3OC)cc(C)[nH]c2c1 | 898 nM |
| COc1ccc(Cl)cc1N1CCN(CCCNC(=O)c2ccc(-c3nc4cc(Cl)c(F)cc4[nH]3)cc2)CC1 | 1060 nM |
| Cc1onc(-c2ccccc2)c1-c1nc(NC2CCCC(C)C2)no1 (configuration not stated) | 836 nM |
| CNc1ccc(CNCc2cccc(-c3ccc(-c4nc5ccccc5[nH]4)cc3)c2)cc1 | 300 nM |
| Cc1cc(CN2CCN(CCOC(c3ccccc3)c3ccccc3)CC2)ccc1O | 935 nM |
| Cc1[nH]c(C)c(-c2ccc(-c3ccc(Cl)cc3)nc2)c(=O)c1Br | 113 nM |
| OC1(CNCc2ccccc2)CCN(CCc2c[nH]c3ccc(F)cc23)CC1 | 710 nM |
| CCN1CCN(c2cc(C)c3cc(NC(=O)c4ccc(OC)c([N+](=O)[O-])c4)ccc3n2)CC1 | 553 nM |
| CN1CCN(c2cc(NC(=O)Nc3cccc(Cl)c3Cl)ccc2Cl)CC1 | 734 nM |
| Oc1ccccc1CN1CCN(C(c2ccccc2)c2ccccc2)CC1 | 761 nM |
| Cc1ccc(-n2nc(C)c3c2NC(=O)CSC3c2ccsc2)cc1 (configuration not stated) | 1010 nM |
| O=C(Nc1ccon1)c1cc(-c2cccnc2)nc2ccc(Br)cc12 | 744 nM |
| O=C(C=Cc1ccc(Cl)c(Cl)c1)NC1CCN(CCc2ccccc2)CC1 | 594 nM |
| COc1cccc(Nc2nccc(-c3c(-c4cccc(NC(=O)c5c(F)cccc5F)c4)nn4ccccc34)n2)c1 | 178 nM |
| O=C(NCCN1CCCC1)c1cccc(-c2ccc(-c3nc4ccccc4[nH]3)cc2)c1 | 919 nM |
| CN1CCN(CCCN(Cc2ccc(-c3ccc(CNC4CCCC4)cc3)cc2)C(=O)CCC2CCCC2)CC1 | 886 nM |

| Compound | XC50 |
| --- | --- |
| O=C(/C=C/c1ccc(Cl)c(Cl)c1)NCCCCN1CCCN(C(=O)Nc2ccc(F)c(Cl)c2)CC1 | 1510 nM |
| CCN(CC)CCNC(=O)c1ccc(NC(=O)c2cn(-c3ccccc3)nc2-c2cccs2)cc1 | 258 nM |
| CC1(CCN2CCC(c3c[nH]c4cnccc34)CC2)CCCc2c(Br)cccc2C1=O (configuration not stated) | 195 nM |
| CCOc1cc(C(=O)N[C@@H](Cc2ccccc2)[C@H](O)CNCc2cc(OC)cc(OC)c2)cc(N2CCCCS2(=O)=O)c1 | 519 nM |
| COc1ccc2[nH]c(-c3ccccc3)cc(=NN=Cc3ccncc3)c2c1 | 812 nM |
| O=C(Nc1ccc(Cl)c(C(F)(F)F)c1)NC1CCN(CCCCCNC(=O)C2CC2c2ccc(Cl)c(Cl)c2)CC1 (configuration not stated) | 683 nM |
| Cc1cc(OCCN2CCCCC2)ccc1NC(=O)c1cccc2c(=O)n(Cc3ccc(Cl)cc3)cnc12 | 1060 nM |
| CN(C)c1ccc(CN2CCC(NC(=O)c3ccc(-c4cccc(F)c4)s3)CC2)cc1 | 1490 nM |
| CCN(CC)CCN(CCN(CC)CC)c1ccc2c(c1)Sc1c(Cl)ccc(Cl)c1S2 | 876 nM |
| FC(F)(F)c1ccc(CSc2ccc3nnc(-c4ccccn4)n3n2)cc1 | 817 nM |
| COc1ccc(OC)c(-c2ccc(=O)n(CC(=O)Nc3cccc4ccccc34)n2)c1 | 901 nM |
| Cc1cccc2nc(-c3ccc(-c4ccc(CNCCCN5CCCC5=O)cc4)cc3)[nH]c12 | 632 nM |
| N#Cc1ccc(N2CCN(Cc3cccc(-c4cccc(-c5nc6cc(C(F)(F)F)ccc6[nH]5)c4)c3)CC2)nc1 | 962 nM |
| C[C@H](Cc1ccc(OCCCCCCCOc2ccc(C[C@@H](C)NC[C@H](O)c3cccc(Cl)c3)cc2)cc1)NC[C@H](O)c1cccc(Cl)c1 | 189 nM |
| COCCCNc1sc(S(=O)(=O)c2ccccc2)nc1S(=O)(=O)c1ccc(C)cc1 | 802 nM |
| CC1(C)NC(N)=NC(=N)N1OCCc1cccc2ccccc12 | 3.2 nM |
| O=C1O[C@H](c2ccccc2)[C@H](c2ccccc2)N(C(=O)OCc2ccccc2)[C@H]1Cc1ccccc1C1CCCC1 | 59.1 nM |
| CCNc1nc(OCC(F)(F)F)nc(N(c2ccccc2)c2ccccc2)n1 | 472 nM |
| CCC[C@@H]1CCN[C@H]([C@H](O)c2ccnc3ccc(OC)cc23)C1 | 726 nM |
| COC(=O)c1cccc(CNCc2ccc(-c3cccc(-c4nc5cc(C(F)(F)F)ccc5[nH]4)c3)cc2)c1 | 156 nM |
| CC(C)(C)C(=O)N1CCN(c2ccc([N+](=O)[O-])c(NC3CC3)c2)CC1 | 941 nM |
| O=C(Nc1cccc(CN2CCCN(Cc3ccc4c(c3)OCO4)CC2)c1)c1ccc(-c2ccccc2)cc1 | 652 nM |
| Cc1cc(Nc2ccccc2)nc(Nc2ccccc2)n1 | 799 nM |
| FC(F)(F)c1cccc(Nc2nc(-n3ccnc3)nc(-n3ccnc3)n2)c1 | 724 nM |
| COc1cc(-c2nc(-c3ccccc3)c(-c3ccccc3)[nH]2)ccc1OCCN(C)C | 303 nM |

| Compound | XC50 |
| --- | --- |
| O=C(/C=C/c1ccc2ccccc2c1)NCCCCCN1CCC(c2c[nH]c3ccccc23)CC1 | 1220 nM |
| Clc1ccccc1C=NN=c1cc[nH]c2ccccc12 | 850 nM |
| COc1cccc2cc(C(=O)N[C@@H](CC(C)C)C(=O)N[C@H](C=NN(C)C(=O)OC(C)(C)C)Cc3ccccc3)oc12 | 262 nM |
| CCN1CCN(c2cc(C)c3cc(NC(=O)c4cncc(Br)c4)ccc3n2)CC1 | 656 nM |
| Cc1ccc(-c2ccn(Cc3cccc(OCc4ccccc4)c3)n2)cn1.Cc1ccc(-c2ccnn2Cc2cccc(OCc3ccccc3)c2)cn1 | 1180 nM |
| O=C(c1ccco1)c1cn(CCOc2ccccc2)c2ccccc12 | 748 nM |
| Cc1ccc(O)c(Nc2c3c(c(C#N)c4nc5ccccc5n24)CCC3)c1 | 1250 nM |
| CN1CCCC(CN2CCN(Cc3ccc(-c4cccc(-c5nc6ccccc6[nH]5)c4)cc3)CC2)C1 (configuration not stated) | 132 nM |
| O=C(/C=C/c1ccc(Cl)c(Cl)c1)N1CCC(CN2CCC(Cc3c[nH]c4ccccc34)CC2)CC1 | 674 nM |
| CN1CCN(Cc2cccc(-c3ccc4c(Nc5ccc(F)cc5Cl)ccnc4c3)c2)CC1 | 156 nM |
| CC[C@H]1CN2CC[C@@H]1C[C@H]2[C@H](O)c1cc(N2CCC(C)CC2)nc2ccc(OC)cc12 | 172 nM |
| CCCCCCCN1CC[C@@H](CCCc2ccnc3ccc(OCCN4CCOCC4)cc23)[C@@H](CC)C1 | 909 nM |
| N=c1c2c(n(Cc3ccc(Cl)cc3Cl)c3c1CCC3)CCCC2 | 350 nM |
| NCCCOc1cnc(-c2ccccc2)c2nc(-c3nonc3N)n(CCc3ccccc3)c12 | 1270 nM |
| O=C(/C=C/c1ccc(Cl)c(Cl)c1)N(Cc1ccccc1)C1CCC(CN2CCC(c3c[nH]c4ccccc34)CC2)CC1 (configuration not stated) | 209 nM |
| Nc1ncc(-c2cccc(CCN3CCOCC3)c2)cc1-c1nc2cc(Br)ccc2[nH]1 | 277 nM |
| O=S(=O)(Nc1cccc(F)c1CNCc1ccccn1)c1ccc(Cl)c(Cl)c1 | 889 nM |
| COc1ccc2nccc([C@@H](O)CN3CCC(NC(=O)c4nc(Cl)c(Cl)c(N)c4Cl)CC3)c2c1 | 1300 nM |
| CCCCCCN1CCC(NCc2ccc(C(F)(F)F)cc2)CC1 | 375 nM |
| Cc1nc(C)c(CC(=O)Nc2cccc(-c3cccc(-c4nc5cccc(C)c5[nH]4)c3)c2)s1 | 755 nM |
| COc1cc(F)c2ncc(C#N)c(CCN3CCC(NCc4ccc5c(c4)OCCO5)CC3)c2c1 | 428 nM |
| N#Cc1ccc2[nH]cc(-c3cn4cc(SC5CCCC5)ccc4n3)c2c1 | 942 nM |
